Test results reported in article PMC8348996, “pH-sensitive dual drug loaded janus nanoparticles by oral delivery for multimodal analgesia” (Journal of Nanobiotechnology, 2021).
Like-named read-outs stand apart in the source and are kept apart here.

Tests used:
Caco-2 cells [1] = assay: Mechanism of cell uptake with specific endocytosis inhibitors (flow cytometry); type: cell-based; conditions: inhibitor 0.5 h, then FITC-αCT-JNP or FITC-αCT/Res-JNP 2 h; uptake without inhibitor = 100%
Experimental: The mechanism of cell uptake was also investigated. Caco-2 cells in the logarithmic growth phase were seeded in 6-well plates at 3 × 10^5 cells/well and incubated for 48 h. Chlorpromazine (10 μg/mL), genistein (54 μg/mL), amiloride (12 μg/mL), and nocodazole (300 μg/mL) were added to the individual wells as inhibitors and were incubated for 0.5 h. FITC-αCT-JNP and FITC-αCT/Res-JNP were then added and the wells were incubated for another 2 h. The cells were then collected using trypsin and centrifuged at 1000 rpm for 5 min. Cells without any inhibitors were used as controls. Fluorescence intensity was detected using flow cytometry (FACSJazz, BD, USA).

Caco-2 cells [2] = assay: Cellular uptake of FITC-αCT observed by CLSM; type: cell-based; conditions: 6 h incubation, 1:20 dilution
Experimental: (§1) Cell culture was carried out according to previously described procedures. HT-29/MTX and Caco-2 cells were seeded into 24-well plates at a density of 1 × 10^5 cells/well and 6 × 10^4 cells/well, respectively. After the cells adhered onto each well, the culture medium was discarded, and three types of samples (FITC-αCT, FITC-αCT-JNP, or FITC-αCT/Res-JNP) at 1:20 dilutions were added. After 6 h, the liquid in the wells was discarded, and the cells were washed with PBS. Each well was fixed with 4% (v/v) paraformaldehyde (0.5 mL) for 20 min, and rinsed with PBS. The cells were then incubated with 0.1% Triton X-100 for 10 min to permeabilize the cell membrane, and then incubated with DAPI for 10 min. After sealing, it was observed using CLSM.

HT29/MTX cells = assay: Cellular uptake of FITC-αCT observed by CLSM; type: cell-based; conditions: 6 h incubation, 1:20 dilution
Experimental: as §1

[3] = system: Caco-2/HT29-MTX/Raji monolayers; assay: Trans-monolayer transport; type: in vitro ADME; conditions: Caco2-HT29/MTX-Raji cell model, AP to BL, 4 h
Experimental: (§2) Caco-2, Caco-2/HT29-MTX (7/3), and Caco-2/HT29-MTX/Raji cell models were established for the trans-monolayer transport study, as previously described. The assay was carried out from the AP side (pH 6.5) to the BL side (pH 7.4) using HBSS-HEPES buffer. […] At 0, 0.5, 1, 2, and 4 h, a certain amount of sample was taken from the basolateral compartment, and the same volume of HBSS-HEPES buffer was added.

[4] = system: Caco-2/HT29-MTX monolayers; assay: Trans-monolayer transport; type: in vitro ADME; conditions: Caco2-HT29/MTX cell model, AP to BL, 4 h
Experimental: as §2

Caco-2 monolayers = assay: Trans-monolayer transport; type: in vitro ADME; conditions: Caco-2 cell model, AP to BL, 4 h
Experimental: as §2

[5] = SPIP, n = 3
Experimental: SPIP was performed to determine the absorption and enterocytic uptake of the nanoparticles. The abdominal cavity of SD rats were opened along the midline of the abdomen to expose the intestinal tissue. The jejunum, ileum, duodenum, and colon segments were measured, and incisions were made at both ends of these segments. Both ends of the incision were intubated and fixed using ligation. The wounds were covered with an absorbent cotton soaked in normal saline and maintained at 37 °C. […] After 60 min, the jejunum, ileum, duodenum, and colon were dehydrated to create frozen Sects. (10 μm). These sections were observed using CLSM, and the fluorescence intensity of each section was quantified.

[6] = Lymphatic transport in mesenteric lymph-cannulated rats; type: in vivo, SD rats
Experimental: The methods of mesenteric lymphatic intubation were based on previous studies. Briefly, SD rats (300–350 g) were given 2 mL peanut oil via gavage 1 h before administration to induce lymphoid production. One hour later, the animals were anesthetized via intraperitoneal injection of 50 mg·kg^−1 pentobarbital sodium. The rats were placed in the supine position on the ventral side and their limbs were fixed. A midline abdominal incision (approximately 4 cm long) was made at 2/3 of the line connecting the xiphoid and pubic symphysis. […] The trunk of the mesenteric lymphatic vessels (approximately 1 cm) was then separated. A 4-mm PE-25 pipe with a PE-50 hose was connected, the joint of each pipe was fully fixed, and the pipe was filled with 1% EDTA-2Na. […] A small incision was made in the mesenteric lymphatic vessel, and the PE-25 tube end was intubated. When the lymphatic fluid completely filled the tube and drained smoothly, the intubation site was fixed. After resuscitation, the rats were allowed to drink 5% glucose solution freely and recover overnight.

in vivo = assay: in vivo; parameters: species or system SD rats
Experimental: SD rats fasted but drank water freely for 24 h before administration. The dosage of JNP group was 50 µg·kg ^−1 (calculated using αCT), and the other groups were converted according to the ratio of their drug loading to αCT. After intragastric administration, blood samples were collected at 0.25, 0.5, 1, 4, 8, 12, and 24 h. […] PKSolver software (V2.0, China Pharmaceutical University, China) was used to process the data, compare the blood PK parameters of each group after administration, and generate the drug concentration–time curve.

trypsin = molecular target: T1, trypsin (Sus scrofa, UniProt P00761); assay: Stability in SIF containing 0.2% trypsin (residual drug content); type: in vitro ADME; conditions: SIF with 0.2% trypsin, 37 °C, first hour
T1 construct: purchased Gibco Invitrogen Co. (Carlsbad, USA)
T1 sequence (P00761 9-231): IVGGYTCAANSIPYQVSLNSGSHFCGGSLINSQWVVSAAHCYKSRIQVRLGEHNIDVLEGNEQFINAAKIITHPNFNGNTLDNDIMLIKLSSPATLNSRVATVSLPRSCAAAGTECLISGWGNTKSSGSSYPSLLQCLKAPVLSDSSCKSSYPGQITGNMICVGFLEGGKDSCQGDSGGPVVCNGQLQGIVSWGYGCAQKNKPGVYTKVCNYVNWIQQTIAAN
Experimental: The effect of trypsin on the stability of αCT/Res-JNPs was also evaluated. αCT/Res-JNPs were centrifuged at 20,000 rpm at 4 °C for 30 min, and then resuspended in SIF. The control group was treated with αCT solution and Res solution. SIFs and trypsin (0.2%, w/v) were mixed at 37 °C for 2 h. At predetermined time points (15, 30, 60, and 120 min), HCl solution (0.1 M) was added to terminate the trypsin activity. Subsequently, dichloromethane was added to dissolve the organic phase contained in the JNP solution. The pH of the solution was then adjusted to 4.0 using hydrochloric acid to dissolve the internal aqueous phase of the JNP. Subsequently, samples were collected, and the contents of residual αCT and Res in the JNP samples were analyzed via HPLC.

animal models = conditions: cited from earlier work
[7] = In vitro release behavior by dialysis in SGF (pH 1.2) and PBS (pH 7.4); type: physicochemical
Experimental: The release behavior of αCT and Res in vitro was investigated through dialysis. […] The release medium was SGJ (pH 1.2) containing 2% sodium dodecyl sulfate (w/v) and 30 mL PBS (pH 7.4). The release behavior of drugs from JNP was studied under the conditions of 37 ± 0.5 °C and a rotating speed of 100 rpm. At fixed time points (0, 0.25, 0.5, 0.75, 1.0, 1.5, and 2.0 h in SGJ; 0, 0.25, 0.5, 1.0, 2,0, 4.0, 6.0, 8.0, 10.0, 12.0, and 24.0 h in PBS), 1 mL of release medium was removed, and a blank release medium with the same volume and temperature was supplemented. The samples were filtered through a 0.22-μm microporous membrane, and the supernatant was obtained after high-speed centrifugation. The αCT and Res content were determined using HPLC. The cumulative release percentage was calculated, and a release curve was obtained. The formula for cumulative drug release is shown in the following equation, where Ct is the content of two drugs at each sampling point, V0 is the volume of the release medium, V is the sampling volume, and M0 is the initial dosage:3 Cumulative release%=Ct×V0+∑n=1t-1C×V/M0×100%

[8] = humans and animals; cited from earlier work
[9] = rats, intragastric, 50 µg·kg^−1 as αCT, plasma FITC-αCT, n = 5
[10] = PBS pH 7.4, time point not stated
[11] = Sprague-Dawley, rat, in vivo, po

## O=c1c(-c2ccc(O)cc2)coc2cc(O)cc(O)c12 [genistein]
Caco-2 cells [1]
  effect of endocytosis inhibitor on uptake rate of JNP by Caco-2 cells: did not significantly inhibit the cellular uptake of JNP

## FITC-αCT: αCT labeled with fluorescein isothiocyanate (FITC)
Caco-2 cells [2]
  cellular uptake of FITC-αCT (green fluorescence, CLSM): no obvious green fluorescence
HT29/MTX cells
  cellular uptake of FITC-αCT (green fluorescence, CLSM): no obvious green fluorescence
[3]
  cumulative transport: approximately 4%
[4]
  cumulative transport: approximately 4%
Caco-2 monolayers
  cumulative transport of FITC-αCT: approximately 3%

## COC(=O)Nc1nc2ccc(C(=O)c3cccs3)cc2[nH]1 [nocodazole]
Caco-2 cells [1]
  effect of endocytosis inhibitor on uptake rate of JNP by Caco-2 cells: did not significantly inhibit the cellular uptake of JNP

## α-Cobrotoxin [αCT]
[5]; colon
  Ka of αCT: 0.85 ± 0.14 × 10^–2 min^−1
  Peff of αCT: 1.34 ± 0.23 × 10^–3 cm·min^−1
[5]; duodenum
  Ka of αCT: 0.81 ± 0.11 × 10^–2 min^−1
  Peff of αCT: 1.27 ± 0.19 × 10^–3 cm·min^−1
[5]; ileum
  Ka of αCT: 0.91 ± 0.03 × 10^–2 min^−1
  Peff of αCT: 1.44 ± 0.05 × 10^–3 cm·min^−1
[5]; jejunum
  Ka of αCT: 0.98 ± 0.05 × 10^–2 min^−1
  Peff of αCT: 1.56 ± 0.10 × 10^–3 cm·min^−1
[6]
  time after which αCT was no longer detected in lymph: 6 h
In vivo; rats, intragastric
  t1/2 of αCT: 0.17 ± 0.03 h
  time of peak concentration of αCT: about 30 min
In vivo; [9]
  AUCt of αCT: 67.65 ± 17.91 ng·h/mL
  AUMCt of αCT: 112.44 ± 12.97 ng/ml*h^2
  Cmax of αCT: 26.85 ± 3.00 ng/mL
  Tmax of αCT: 0.5 h
  t1/2β of αCT: 2.69 ± 0.36 h
trypsin
  residual amount of αCT: 25.60%
Animal models; high dose 100 μg·kg^−1, intraperitoneal injection
  effect on pain sensitivity: significantly enhance pain sensitivity
Animal models; low dose, animal models
  effect on pain threshold and action ability: improve the pain threshold and action ability
[7]; [10]
  release of αCT in PBS: 67.89%
[7]; SGF pH 1.2, 2 h, 37 °C
  cumulative release of αCT: approximately 40.17%

## CN(C)CCCN1c2ccccc2Sc2ccc(Cl)cc21 [chlorpromazine]
Caco-2 cells [1]
  effect of endocytosis inhibitor on uptake rate of JNP by Caco-2 cells: significantly reduced the uptake rate of JNP

## Oc1ccc(/C=C/c2cc(O)cc(O)c2)cc1 [Res, Resveratrol]
[5]; colon
  Ka of Res: 1.01 ± 0.26 × 10^–2 min^−1
  Peff of Res: 1.60 ± 0.44 × 10^–3 cm·min^−1
[5]; duodenum
  Ka of Res: 0.99 ± 0.11 × 10^–2 min^−1
  Peff of Res: 1.58 ± 0.18 × 10^–3 cm·min^−1
[5]; ileum
  Ka of Res: 1.91 ± 0.66 × 10^–2 min^−1
  Peff of Res: 3.26 ± 1.26 × 10^–3 cm·min^−1
[5]; jejunum
  Ka of Res: 1.55 ± 0.26 × 10^–2 min^−1
  Peff of Res: 2.57 ± 0.46 × 10^–3 cm·min^−1
[8]
  oral bioavailability: almost zero
[6]
  time after which Res was no longer detected in lymph: 4 h
In vivo; [11]
  AUC(0-t): 84.6 ± 3.8 ng·h/mL
  Cmax: 92.1 ± 8 ng/mL
  MRT last: 1.56 ± 0.52 h
  half-life: 1.09 ± 0.07 h
In vivo; Sprague-Dawley, rat, in vivo, po, time of peak concentration of Res, rats, intragastric
  Tmax: 0.167 h
In vivo; rats, intragastric, plasma Res, n = 5
  AUMCt of Res: 118.18 ± 19.08 ng/ml*h^2
trypsin
  residual amount of Res: 47.23%
[3]
  cumulative transport: approximately 14%
[4]
  cumulative transport: approximately 6%
Caco-2 monolayers
  cumulative transport of Res: approximately 14%
[7]; [10]
  release of Res in PBS: 86.71%
[7]; SGF pH 1.2 with 2% sodium dodecyl sulfate, within 1 h
  release rate of Res: 93.76%

## N=C(N)NC(=O)c1nc(Cl)c(N)nc1N [amiloride]
Caco-2 cells [1]
  effect of endocytosis inhibitor on uptake rate of JNP by Caco-2 cells: significantly reduced the uptake rate of JNP
